The target of the experiment is bovine cardiac myofibrils (full-length cardiac myosin ATPase in the native sarcomere) (Bos taurus (Bovine), UniProt Q9BE39). Put plainly: Skinned bovine cardiac myofibril ATPase assay (PK/LDH-coupled). In kind it is biochemical. The note with it: Ca2+ activating to 75% of maximal rate; for CDMF75 IC15: concentration giving 15% inhibition; for IC50: read-out: CDMF75 IC50. Put shortly: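 Triton-skinned bovine left-ventricle myofibrils (1 mg/mL) in PM 12 buffer (12 mM PIPES, 2 mM MgCl2, pH 6.8) with 50 μM ATP, 0.6 mM EGTA and CaCl2 set for 50% or 75% activation. Steady-state ATPase inhibition followed by PK/LDH-coupled NADH oxidation at 340 nm.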
Sequence of bovine cardiac myofibrils (full-length cardiac myosin ATPase in the native sarcomere) (Q9BE39 whole entry): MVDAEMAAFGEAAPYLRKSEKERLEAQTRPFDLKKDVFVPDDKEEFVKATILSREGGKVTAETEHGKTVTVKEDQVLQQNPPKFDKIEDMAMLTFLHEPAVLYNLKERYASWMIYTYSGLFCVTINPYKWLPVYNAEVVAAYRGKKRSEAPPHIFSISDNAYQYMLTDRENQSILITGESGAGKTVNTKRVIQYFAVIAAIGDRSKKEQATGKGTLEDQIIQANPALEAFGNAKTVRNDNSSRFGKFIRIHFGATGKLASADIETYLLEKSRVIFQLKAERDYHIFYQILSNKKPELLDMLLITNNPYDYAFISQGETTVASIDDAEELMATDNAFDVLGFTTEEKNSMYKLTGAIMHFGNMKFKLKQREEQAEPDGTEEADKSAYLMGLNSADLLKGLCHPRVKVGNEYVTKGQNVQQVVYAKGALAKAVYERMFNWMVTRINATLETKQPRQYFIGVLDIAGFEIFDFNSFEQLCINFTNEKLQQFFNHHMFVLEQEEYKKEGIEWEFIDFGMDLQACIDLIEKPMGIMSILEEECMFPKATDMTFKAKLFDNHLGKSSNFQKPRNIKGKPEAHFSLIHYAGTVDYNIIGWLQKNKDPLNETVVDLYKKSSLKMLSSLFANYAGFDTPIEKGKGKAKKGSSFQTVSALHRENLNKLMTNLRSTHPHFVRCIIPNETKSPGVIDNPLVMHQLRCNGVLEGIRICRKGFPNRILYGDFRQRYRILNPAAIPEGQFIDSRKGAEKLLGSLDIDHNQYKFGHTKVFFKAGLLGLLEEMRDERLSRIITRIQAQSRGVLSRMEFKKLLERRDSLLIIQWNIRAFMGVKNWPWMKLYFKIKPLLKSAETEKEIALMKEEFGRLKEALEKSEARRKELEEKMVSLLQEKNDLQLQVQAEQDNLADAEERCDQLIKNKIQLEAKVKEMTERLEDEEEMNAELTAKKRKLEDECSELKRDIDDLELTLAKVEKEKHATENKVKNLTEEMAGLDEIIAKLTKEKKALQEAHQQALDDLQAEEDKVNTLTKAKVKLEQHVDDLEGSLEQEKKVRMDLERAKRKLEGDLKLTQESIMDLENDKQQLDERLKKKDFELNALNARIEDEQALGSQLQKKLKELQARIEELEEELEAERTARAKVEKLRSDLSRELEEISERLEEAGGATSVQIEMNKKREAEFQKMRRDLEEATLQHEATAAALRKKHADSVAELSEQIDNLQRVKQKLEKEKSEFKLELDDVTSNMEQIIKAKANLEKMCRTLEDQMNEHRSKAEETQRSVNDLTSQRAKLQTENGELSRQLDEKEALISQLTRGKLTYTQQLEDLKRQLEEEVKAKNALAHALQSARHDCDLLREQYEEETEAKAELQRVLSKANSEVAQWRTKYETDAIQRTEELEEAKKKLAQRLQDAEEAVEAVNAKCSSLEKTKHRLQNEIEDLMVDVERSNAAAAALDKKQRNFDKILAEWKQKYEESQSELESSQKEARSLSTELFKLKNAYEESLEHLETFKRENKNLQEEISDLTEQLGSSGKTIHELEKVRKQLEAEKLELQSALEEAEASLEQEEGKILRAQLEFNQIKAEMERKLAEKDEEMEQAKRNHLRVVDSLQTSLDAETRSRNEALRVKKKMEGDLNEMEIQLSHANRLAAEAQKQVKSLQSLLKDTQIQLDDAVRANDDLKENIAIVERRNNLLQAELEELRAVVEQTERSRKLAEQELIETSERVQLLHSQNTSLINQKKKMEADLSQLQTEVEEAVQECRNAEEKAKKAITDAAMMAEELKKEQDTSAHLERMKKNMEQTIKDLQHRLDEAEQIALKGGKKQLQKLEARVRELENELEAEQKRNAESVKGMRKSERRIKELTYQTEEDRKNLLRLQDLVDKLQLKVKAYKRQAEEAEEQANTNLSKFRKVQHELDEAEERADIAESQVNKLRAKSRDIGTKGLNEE
Sequence of bovine cardiac myofibrils (full-length cardiac myosin ATPase in the native sarcomere) (P85100 whole entry partner): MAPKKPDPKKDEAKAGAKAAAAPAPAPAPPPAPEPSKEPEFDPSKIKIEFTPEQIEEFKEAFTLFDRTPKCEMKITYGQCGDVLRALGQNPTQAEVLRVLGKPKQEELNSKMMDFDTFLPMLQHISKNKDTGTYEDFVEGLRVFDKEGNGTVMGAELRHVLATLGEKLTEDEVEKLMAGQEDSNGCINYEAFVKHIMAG
Sequence of bovine cardiac myofibrils (full-length cardiac myosin ATPase in the native sarcomere) (Q3SZE5 whole entry partner): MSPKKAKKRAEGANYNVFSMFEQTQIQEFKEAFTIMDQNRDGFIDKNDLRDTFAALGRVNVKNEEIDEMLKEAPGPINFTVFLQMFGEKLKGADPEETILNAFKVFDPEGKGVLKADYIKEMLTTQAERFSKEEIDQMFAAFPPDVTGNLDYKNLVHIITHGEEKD

Turning to `Cc1nc(-c2ccc3c(c2)OC[C@H]3NC(=O)c2ccnn2C)no1` [Compound 122, (S)-1-methyl-N-(6-(5-methyl-1,2,4-oxadiazol-3-yl)-2,3-dihydrobenzofuran-3-yl)-1H-pyrazole-5-carboxamide], the “CDMF75 IC15” value was 0.5 µM and the 50% inhibitory concentration (IC50) came to 1.8 µM.

In the case of `Cn1cc(C(=O)N[C@@H]2CCc3cc(-c4nc(C(F)F)no4)ccc32)cn1` [Compound 276, (R)-N-(5-(3-(difluoromethyl)-1,2,4-oxadiazol-5-yl)-2,3-dihydro-1H-inden-1-yl)-1-methyl-1H-pyrazole-4-carboxamide], the “CDMF75 IC15” value was 2.6 µM and the IC50 is 10.1 µM.

Turning to `Cc1cc(C(=O)N[C@@H]2COc3cc(-c4noc(C)n4)cnc32)ccn1` [Compound 188, (S)-2-methyl-N-(6-(5-methyl-1,2,4-oxadiazol-3-yl)-2,3-dihydrofuro[3,2-b]pyridin-3-yl)isonicotinamide], the “CDMF75 IC15” value is 5.3 µM and the IC50 stood at 23.6 µM.

For `CC(C)c1nc(-c2ccc3c(c2)CC[C@H]3NC(=O)c2cnn(C)c2)no1` [Compound 394, (R)-N-(5-(5-isopropyl-1,2,4-oxadiazol-3-yl)-2,3-dihydro-1H-inden-1-yl)-1-methyl-1H-pyrazole-4-carboxamide], the “CDMF75 IC15” value amounted to 1.2 µM and the IC50 stood at 4.1 µM.

On to `Cc1nc(-c2ccc3c(c2)CCC3NC(=O)c2ncccc2C)no1` (stereo not drawn) [Compound 59, 3-methyl-N-(5-(5-methyl-1,2,4-oxadiazol-3-yl)-2,3-dihydro-1H-inden-1-yl)picolinamide], for which the “CDMF75 IC15” value was determined as 5.7 µM and the IC50 was determined as 28.2 µM.

For `Cc1nc(C(=O)NC2CCc3cc(-c4noc(C)n4)ccc32)no1` (stereo not drawn) [Compound 87, 5-methyl-N-(5-(5-methyl-1,2,4-oxadiazol-3-yl)-2,3-dihydro-1H-inden-1-yl)-1,2,4-oxadiazole-3-carboxamide], the “CDMF75 IC15” value is 3.7 µM and the IC50 was determined as 15.7 µM.

`Cc1cc(-c2ccc3c(c2)CC[C@H]3NC(=O)c2ccnn2C)cnn1` [Compound 384, (R)-1-methyl-N-(5-(6-methylpyridazin-4-yl)-2,3-dihydro-1H-inden-1-yl)-1H-pyrazole-5-carboxamide]: the “CDMF75 IC15” value amounted to 39.2 µM and the concentration for half-maximal inhibition (IC50) was above 39.2 µM.

As for `Cc1nc(-c2ccc3c(c2)OC[C@H]3NC(=O)c2conc2C)no1` [Compound 347, (S)-3-methyl-N-(6-(5-methyl-1,2,4-oxadiazol-3-yl)-2,3-dihydrobenzofuran-3-yl)isoxazole-4-carboxamide], the “CDMF75 IC15” value was 0.5 µM and the IC50 was 1.6 µM.

As to `COCc1nc(-c2ccc3c(c2)OCC3NC(=O)c2cc(C)nn2C)no1` (stereo not drawn) [Compound 226, N-(6-(5-(methoxymethyl)-1,2,4-oxadiazol-3-yl)-2,3-dihydrobenzofuran-3-yl)-1,3-dimethyl-1H-pyrazole-5-carboxamide], the “CDMF75 IC15” value came out at 1.2 µM and the 50% inhibitory concentration (IC50) was 4 µM.

With `CCc1cc(-c2ccc3c(c2)OC[C@H]3NC(=O)c2ocnc2C)no1` [Compound 424, (S)-N-(6-(5-ethylisoxazol-3-yl)-2,3-dihydrobenzofuran-3-yl)-4-methyloxazole-5-carboxamide], the “CDMF75 IC15” value is 0.2 µM and the half-inhibitory concentration (IC50) was 0.6 µM.

As to `[2H]C([2H])([2H])c1nc(-c2ccc3c(c2)CC[C@H]3NC(=O)c2cnn(C)c2)no1` [Compound 244, (R)-1-methyl-N-(5-(5-(methyl-d3)-1,2,4-oxadiazol-3-yl)-2,3-dihydro-1H-inden-1-yl)-1H-pyrazole-4-carboxamide], the “CDMF75 IC15” value is 1.6 µM and the IC50 is 5.4 µM.

`O=C(N[C@@H]1CCc2cc(-c3noc(C4CC4)n3)ccc21)c1cnn(CCCO)c1` [Compound 601, (R)-N-(5-(5-cyclopropyl-1,2,4-oxadiazol-3-yl)-2,3-dihydro-1H-inden-1-yl)-1-(3-hydroxypropyl)-1H-pyrazole-4-carboxamide]: the “CDMF75 IC15” value was 1.6 µM and the IC50 worked out at 7.3 µM.

Take `Cc1nc(-c2ccc3c(c2)CCC3NC(=O)c2cnc(C)n2C)no1` (stereo not drawn) [Compound 45, 1,2-dimethyl-N-(5-(5-methyl-1,2,4-oxadiazol-3-yl)-2,3-dihydro-1H-inden-1-yl)-1H-imidazole-5-carboxamide]: the “CDMF75 IC15” value is 2.1 µM and the IC50 was determined as 7.6 µM.

For the molecule `Cc1nc(C)c(C(=O)NC2CCc3cc(-c4noc(C(F)F)n4)ccc32)o1` (stereo not drawn) [Compound 19, N-(5-(5-(difluoromethyl)-1,2,4-oxadiazol-3-yl)-2,3-dihydro-1H-inden-1-yl)-2,4-dimethyloxazole-5-carboxamide], the “CDMF75 IC15” value was 1.3 µM and the 50% inhibitory concentration (IC50) was 4.6 µM.

For `CCOC(=O)C(C)c1nc(-c2ccc3c(c2)CCC3NC(=O)c2cnc(C)o2)no1` (stereo not drawn) [Compound 493, ethyl 2-(3-(1-(2-methyloxazole-5-carboxamido)-2,3-dihydro-1H-inden-5-yl)-1,2,4-oxadiazol-5-yl)propanoate], the “CDMF75 IC15” value came out at 5.6 µM and the half-inhibitory concentration (IC50) came to 21.4 µM.

On to `Cc1c(C(=O)N[C@@H]2CCc3cc(-c4nc(C5CC5)no4)ccc32)cnn1C` [Compound 259, (R)-N-(5-(3-cyclopropyl-1,2,4-oxadiazol-5-yl)-2,3-dihydro-1H-inden-1-yl)-1,5-dimethyl-1H-pyrazole-4-carboxamide], for which the “CDMF75 IC15” value is 0.8 µM and the half-inhibitory concentration (IC50) is 3 µM.

Regarding `CCc1nc(-c2ccc3c(c2)CC[C@H]3NC(=O)Cc2ccccc2)no1` [Compound 591, (R)-N-(5-(5-ethyl-1,2,4-oxadiazol-3-yl)-2,3-dihydro-1H-inden-1-yl)-2-phenylacetamide], the “CDMF75 IC15” value is 4.4 µM and the IC50 was found to be 9.8 µM.

Regarding `[2H]C([2H])([2H])c1nc(-c2ccc3c(c2)CC[C@H]3NC(=O)c2ccc(=O)n(C)c2)no1` [Compound 646, (R)-1-methyl-N-(5-(5-(methyl-d3)-1,2,4-oxadiazol-3-yl)-2,3-dihydro-1H-inden-1-yl)-6-oxo-1,6-dihydropyridine-3-carboxamide], the “CDMF75 IC15” value is 2.2 µM and the IC50 is 9 µM.

As for `CC(=O)N[C@@H]1CCc2cc(-c3noc(C(F)F)n3)ccc21` [Compound 286, (R)-N-(5-(5-(difluoromethyl)-1,2,4-oxadiazol-3-yl)-2,3-dihydro-1H-inden-1-yl)acetamide], the “CDMF75 IC15” value was 2.1 µM and the half-inhibitory concentration (IC50) is 10.2 µM.

As to `Cc1c(C(=O)N[C@@H]2CCc3cc(-c4noc(C(F)F)n4)ccc32)cnn1CCO` [Compound 675, (R)-N-(5-(5-(difluoromethyl)-1,2,4-oxadiazol-3-yl)-2,3-dihydro-1H-inden-1-yl)-1-(2-hydroxyethyl)-5-methyl-1H-pyrazole-4-carboxamide], the “CDMF75 IC15” value stood at 0.8 µM and the IC50 stood at 2.7 µM.

Turning to `Cc1nn(C)cc1C(=O)N[C@@H]1CCc2cc(-c3noc(C(C)C)n3)ccc21` [Compound 152, (R)-N-(5-(5-isopropyl-1,2,4-oxadiazol-3-yl)-2,3-dihydro-1H-inden-1-yl)-1,3-dimethyl-1H-pyrazole-4-carboxamide], the “CDMF75 IC15” value stood at 0.6 µM and the IC50 is 2.2 µM.

The term IC50 denotes the concentration that inhibits the measured activity by half.

The record behind these values is patent publication US12065436B2, “Cardiac sarcomere inhibitors” (Cytokinetics, Inc., priority 2018, dated 2024).
